Three substances from publication PMC10185643, “Improved LC–MS identification of short homologous peptides using sequence-specific retention time predictors” (Analytical and Bioanalytical Chemistry, 2023) can be followed below.

The nature of this data set: Reversed-phase LC-MS experimental retention time of short peptides. It is filed as physicochemical. The note with it: for RT: experimental retention time, reversed-phase LC-MS, Table S1, column Source gives the peptide's origin (1-4 = synthesis route of homologous peptides, enzyme).

Method: All analyses were performed on an UltiMate 3000 RS chromatography system equipped with a UV detector, connected to a Q-Exactive Plus Hybrid Quadrupole-Orbitrap mass spectrometer (Thermo Fischer Scientific, Waltham, MA, USA). An Xselect Peptide CSH C18 130 Å column (particle size 2.5 µm, dimensions 150 × 2.1 mm, Waters, Etten-Leur, the Netherlands) with associated VanGuard pre-column was used for the separations. The analytes were eluted at a flow rate of 0.35 ml/min using a linear gradient of water (solvent A) and acetonitrile (solvent B) both fortified with 0.1% formic acid. […] The column temperature was maintained at 40 °C and the auto-sampler at 4 °C. The injection volume was 5 µL.
The sheath gas was set to 48 arbitrary units, the auxiliary gas was set to 11 arbitrary units, and the spray voltage was set to 3.7 kV. The mass spectrometer was set to operate in full-scan MS data-dependent MS^2 (ddMS^2) mode. Full-scan spectra were acquired at a resolution of 70.000 in the m/z range 80–1200 using a maximum ion injection time of 100 ms, unless stated otherwise. […] The maximum injection time was set to 150 ms, and a normalized stepped collision energy was applied of 15, 30 and 45 arbitrary units.

For CLVR, the RT is 4,57.
The same measure, in the same setting: the figure for KCEVF is 4,52.
As to CPFD, the “RT (retention time)” value (Table S1, Source: enzyme, experimental reversed-phase LC-MS retention time, decimal comma) was 13,62.
